SMILES strings stand for the structures.

The values below come from patent US20250144250A1, “PH-SENSITIVE FLUOROPHORES” (The General Hospital Corporation, priority 2022, published 2025).

Series [1] relates to ID8 cells. Put plainly: Live-cell labeling and in vitro imaging: cellular uptake of NIR fluorophores. The note with it: fluorescence microscopy. It is filed as cell-based, murine. The protocol: (§1) FIG. 2 Cellular uptake of pH sensing NIR fluorophores via membrane transporters: In vitro tumor cell uptake of the pH sensing NIR probes under normoxic and hypoxic conditions. Murine cancer cell line ID8 cells were incubated at normoxic or hypoxic conditions (1% O2) for 24 h at 37° C. and then incubated for 30 min in the presence of 0.1 μM NIR probes. (a) Representative fluorescence images of cells are shown. The contrast was normalized across all images. Scale bar=100 μm. (b) Quantitative time-course measurements of the fluorescence intensity in cells. *P<0.05, **P<0.01 by two-way ANOVA followed by Tukey's multiple comparisons test (Normoxia vs. Hypoxia). Error bars show mean #s.d. (c) Inhibition assay of transporters to determine the entry mechanisms in ID8 cells. […] Representative fluorescence images of cells are shown. […] (d) Quantitative measurements of the fluorescence intensity in cells. *P<0.05 by two-way ANOVA followed by Tukey's multiple comparisons test. […]
Live-cell labeling and in vitro imaging: Murine ovarian cancer cells (ID8 cells) were obtained from Dr. Wang's lab in the Vincent Center for Reproductive Biology at Massachusetts General Hospital (MGH). […] Image acquisition and analysis were performed using IPLab software (Scanalytics, Fairfax, VA), and the fluorescent intensity of each cell was measured using ImageJ (National Institutes of Health, Bethesda, MD). […]

Series [2] is described as follows: Measurement of optophysical properties (absorbance, fluorescence emission, quantum yield, pH dependence). In kind it is physicochemical. The settings on record: for Abs λMax / Em λMax / QY (quantum yield) / ε (extinction coefficient): pH 7.4. The method, then:
Measurement of optophysical properties: Absorbance and fluorescence emission spectra of the series of NIR fluorophores were measured using fiber optic HR2000 absorbance (200-1100 nm) and USB2000FL fluorescence (350-1000 nm) spectrometers (Ocean Optics, Dunedin, FL). NIR excitation was provided by a 655 nm red laser pointer (Opcom Inc., Xiamen, China) set to 5 mW and coupled through a 300 μm core diameter, NA 0.22 fiber (Fiberguide Industries, Stirling, NJ). To determine the pH dependence of the fluorescence signal, optical measurements were performed at 37° C. in PBS, pH 4.0-7.4 or 100% FBS buffered with 50 mM HEPES, pH 4.0-7.4. The pH of the solutions was adjusted as appropriate with NaOH and HCl using a pH spear tester (Thermo Scientific). For fluorescence quantum yield (QY) measurements, indocyanine green (ICG) in DMSO (QY=13%) was used as a calibration standard to measure the fluorescence QY under conditions of matched absorbance at 765 nm. In silico calculations of the partition coefficient (LogP and LogD at pH 7.4), surface molecular charge, hydrophobicity, hydrogen bond acceptors/donors (HBA/HBD), the acid dissociation constant (pKa), and topological polar surface area (TPSA) were calculated using Marvin and JChem calculator plugins (ChemAxon, Budapest, Hungary). Theoretical calculations of HOMO and LUMO energy levels of fluorophores were performed based on density functional theory (DFT) with a 6-311 G basis set using Spartan 18 software (Wavefunction, Irvine, CA). […]

Series [3] has as its system ID8 cells. Put plainly: Inhibition assay of transporters to determine entry mechanism of PH08. In kind it is cell-based, murine. The note with it: 0.2 μM PH08. The method, then:
as §1, with “#s.d.” for “#s.d. (c) Inhibition assay of transporters to determine the entry mechanisms in ID8 cells.”
The organic anion transporting polypeptides (OATPs) is known to mediate the transmembrane uptake of small molecule drugs and include structurally related fluorophores such as the clinically approved indocyanine green (ICG) and tumor-targeting IR-780. […] Next, we determined the contribution of organic cation transporters (OCTs) and organic carnitine (zwitterion) transporters (OCTNs) on the uptake of PH08, which may play roles in the transcellular movement of small organic molecules across epithelial barriers. […]

As to `CCN1/C(=C/C=C2\CCCC(/C=C/C3=[N+](CC)c4ccccc4C3(C)C)=C2c2ccccc2)C(C)(C)c2ccccc21` [PH03, 1-Ethyl-2-((E)-2-((E)-6-(2-((E)-1-ethyl-3,3-dimethylindolin-2-ylidene)ethylidene)-3,4,5,6-tetrahydro-[1,1′-biphenyl]-2-yl)vinyl)-3,3-dimethyl-3H-indol-1-ium iodide], the accumulation in cells result in the series with ID8 cells [1] was “time-dependent manner”. Further, in series [2], the “optical response to pH” value is listed as “little to no change in response to pH”, the “Abs λMax” value amounted to 765 nm, the “Em λMax” value amounted to 785 nm and the “QY (quantum yield)” value is 21.7%. In addition, the “ε (extinction coefficient)” value in series [2] was 364,800 M^−1cm^−1.

Consider `CCN1/C(=C/C=C2\CCCC(/C=C/C3=[N+](CC)c4ccccc4C3(C)C)=C2N2CCNCC2)C(C)(C)c2ccccc21` [PH08], for which, in the series with ID8 cells [1], the accumulation in cells result is on record as “time-dependent manner”. In the series on ID8 cells [3], the “cellular uptake after treatment with D22, inhibitor of OCTs and OCTNs” value is “did not induce changes in cellular uptake”; the “cellular uptake after treatment with bromsulphthalein (BSP), OATP inhibitor” value is listed as “significant reduction in cellular uptake”. Besides, in series [2], the “optical response to pH” value was “increases its fluorescence in mildly acidic conditions between pH 7.0 and 4.0”; the “Abs λMax” value is 710 nm; the “Em λMax” value is on record as 794 nm; the “QY (quantum yield)” value is listed as 16.0%. In addition, the “ε (extinction coefficient)” value in series [2] is reported as 43,800 M^−1cm^−1. The “absorbance wavelength before red-shift” value in series [2] (neutral pH (7.4)) is recorded as 710 nm. Besides, the “molecular absorbance ε at 760 nm” value in series [2] (neutral pH condition (pH=7.4)) is 92,600 M^−1 cm^−1. Further, in series [2] (pH 4.0), the “absorbance wavelength after red-shift” value was 765 nm. In addition, the “molecular absorbance ε at 760 nm” value in series [2] (pH decreases to 4.0) was 134,500 M^−1 cm^−1.
